Reference: EP4218772A1, “LITHIUM SALT FOR USE IN TREATMENT OF PULMONARY HYPERTENSION” (Charité - Universitätsmedizin Berlin, priority 2022, dated 2023)

Tested on: C57BL/6-mice
Procedure: Animal experiments: • General: 10-12 week old male C57BL/6-mice were kept at normoxia or in a hypoxia chamber at 10% O2 for five weeks and got either regular chow or chow containing 0.2% Li2CO3. • IFT88 knock-out in mice: IFT88-flox mice were bred with Cdh5-cre mice. 2 weeks prior to treatment, IFT88fl/fl, Cdh5-cre+ and Cdh-cre- mice were intraperitoneally injected with tamoxifen (75 mg/kg body weight) to induce knock-out. • Echocardiography: Mice were anesthetized with initially 3% isoflurane. The animals are fixed in dorsal position and their thoracal hair was removed with depilatory cream. Pulmonary artery flow, tricuspid valve movement and other echocardiographic parameters were assessed with the echo device Vevo3100. • RVSP measurement: After five weeks, the mice got an intraperitoneal injection of ketamin (200 mg/kg bodyweight (bw)) and xylazine (10 mg/kg bw). A 2F microtip millar catheter was advanced into the right ventricle via the jugularis vein to measure right ventricle systolic pressure (RVSP).

Substance: lithium carbonate [Li2CO3]
- right ventricular systolic blood pressure (chow containing 0.2% Li2CO3, hypoxia 10% O2 for five weeks): reduced the increase
- development of a PH under chronic hypoxia (food with 0.2% Li2CO3, 10% O2 for 5 weeks, Fig. 1D): prevents the development of a PH
